By melting point is commonly meant the temperature of the solid-liquid transition. `COC(=O)N(C)CCCCCC(=O)OC[C@@H]1CC(c2ccc(-c3ccc(N4C[C@H](Cn5ccnn5)OC4=O)cc3F)cn2)=NO1` yielded a melting point of 103 °C.
Next, `O=C(COc1ccc(-c2ccccc2)cc1Br)c1ccccc1`: 93 to 95 °C; `O=C(N[C@@H](Cc1ccccc1)C[C@H](O)[C@H](Cc1ccccc1)NC(=O)OCc1nccs1)OCc1nccs1`: 66 to 69 °C.
Then `CP(C)(=O)COC(=O)c1ccccc1Nc1ccnc2c(C(F)(F)F)cccc12`, with 176 °C.
On to `CCc1cc(S(=O)(=O)N(C)C)ccc1-c1cnc2[nH]c(CCc3cc(OC)ccn3)nc2c1`, for which the melting point was 179 to 180 °C.
Next, `CCCCCc1ccc(OC(=O)c2ccc(OCC)c(F)c2F)cc1`: 61 °C; `O=C(c1cccc(Cl)c1)c1ccnc2ccccc12`: 92.7 °C.
Then `Oc1nc(-c2ccccc2)sc1CCc1ccccc1`, with 127 to 128 °C; and `Cc1cc(C)nc([NH+]([O-])C(=O)Cc2ccsc2)c1` (stereo not drawn), with 154 °C.
Then `O=[N+]([O-])c1oc2c(NS(=O)(=O)C(F)(F)F)cccc2c1-c1ccccc1`, with 168 to 170 °C.
For `COc1cc(C(=O)Nc2c(C)cc3cn(CC(F)(F)F)nc3c2C(=O)NC(C)C)n(-c2ncccc2Cl)n1`, the melting point is 178 to 181 °C.
Then `O=C(Cl)c1ccc2ccccc2c1O`, with 87 to 88 °C; and `CCOC(=O)C(C)(C)n1c(=O)[nH]c2ccccc2c1=O`, with 133 to 134 °C.
Next, `CNC(=O)Nc1cc(C(C)(C)C)c2c(c1)C(C)(C)CO2`: 193 to 194 °C.
Next, `Cc1cc(C)c(Nc2nc(C)ccc2S(=O)(=O)c2ccc(OCc3cc(Cl)nc(Cl)c3)cc2)c(C)c1`: 192 to 201 °C; `O=C(Oc1cccc2sc(-c3ccc(OCCN4CCCC4)cc3)c(C(=O)c3ccc(F)cc3)c12)c1ccc(F)cc1`: 58 to 63 °C.
As to `Cc1cc2nncn2nc1-c1ccccc1`, the melting point lay in the range of 188 to 190 °C.
Then `COc1ccc(C(=O)NCCc2ccc(-c3ccc(O)cc3)cc2)c(OC)c1`, with 190 °C; and `CCOC(=O)C1Cc2cc3c(CC)noc3c(Cl)c2O1` (stereo not drawn), with 95 to 96 °C; and `CN1CCN(C(=O)C(CC(=O)N2Cc3cscc3C2)Cc2ccccc2)CC1` (stereo not drawn), with 156 to 158 °C.
`N#Cc1cnc2sc(Cl)cc2c1Nc1ccc2[nH]ccc2c1` gave a melting point of 228 °C.
Then `N#CC=C1CCc2ccc3ncoc3c21`, with 166 to 168 °C; and `COc1ccc2cccc(CO)c2c1`, with 72 to 74 °C; and `O=S(=O)(c1c(F)c(F)c(F)c(F)c1F)c1c(F)c(F)c(F)c(F)c1F`, with 129 °C.
Then `COC(=O)C(=O)c1ccc(OCCCCCCOc2ccccc2)cc1`, with 50 to 52 °C; and `Oc1cc2c(cc1C13CC4CC(CC(C4)C1)C3)CCCC2`, with 169 to 170 °C.
Next, `CCCCCS(=O)(=O)NC(=O)/C=C/c1ccc(OCCOC)cc1Oc1ncc([N+](=O)[O-])cc1C`: 148 to 150 °C; `COC(=O)CCCc1cc2cc(Cl)ccc2n1S(=O)(=O)c1ccc2nc(C)oc2c1`: 100 to 110 °C; `c1ccc(CSc2ncnc3ccccc23)nc1`: 64.9 to 66.2 °C.
On to `Cn1cc2c(nc(NC(=O)Nc3ccc(CC(=O)NCCCCNC(=O)OC(C)(C)C)cc3)n3nc(-c4ccco4)nc23)n1`, for which the melting point was 186 to 193 °C.
`CCOC(=O)COc1cccc2c1oc1sc(Nc3ccccc3)nc12` returned a melting point of 196 to 198 °C.
Next, `CC(C)(C1CC1)C(O)(Cn1cncn1)c1ccc(Cl)cc1` (stereo not drawn): 88 to 90 °C.
Then `O=C1c2ccccc2C(=O)N1c1cc(CCl)ccn1`, with 152 to 153 °C.
Then `CCCCCC(=O)OC1(c2nc(OC)cc(OC)n2)OC(=O)c2c(Cl)ccc(Cl)c21` (stereo not drawn), with 103 to 105 °C.
As for `COC(=O)c1sc2ccc(OC)cc2c1OCC#N`, the melting point was 160 °C.
Next, `COC(=O)c1c(Cl)cc(C)nc1Oc1c(C)cc(C)cc1C`: 127 to 128 °C; `CCC(CC)c1ccc(CN2CCCC2)c2nc(Oc3c(C)cc(Cl)cc3Cl)n(C)c12`: 107 to 108 °C.
Then `CCCCC[C@H]1CO[C@H](c2ccc(C(=O)O)cc2)OC1`, with 210 to 211 °C.
Then `O=C1N[C@H](Cc2cccc(OCC(F)(F)C(F)F)c2)[C@H](c2ccc(F)cc2)O1` (racemic), with 113 to 114 °C; and `OCc1nccc(N2CCCCC2)c1Br`, with 51 to 53 °C.
`COc1c(Br)c(C)nc(C)c1-c1ccc(Oc2ccc(OC(F)(F)F)cc2)cc1` came in with a melting point of 39 to 41 °C.
Then `COc1ccc2nc(C)cc(-n3cncn3)c2c1`, with 117 to 118 °C.
Then `Cn1cncc1C1SCCCS1`, with 112 °C; and `N#Cc1cnn2c(-c3ccc(Cl)cc3)ccnc12`, with 244 to 245 °C.
Then `Cc1ccc(-c2c(-c3ccc(S(C)(=O)=O)cc3)cnn(-c3ccc(F)c(F)c3)c2=O)cc1F`, with 204 to 206 °C.
The molecule `CC(SCC(=O)O)c1ccc(-c2ccccc2F)cc1` (stereo not drawn) had a melting point of 125 to 127 °C.
Next, `COc1ccc([N+](=O)[O-])c2c1CC(C)(C)O2`: 135 to 136 °C.
Then `CCCCNc1cc(C(=O)O)cc(S(N)(=O)=O)c1Nc1ccc(N)cc1`, with 210 °C; and `C=CCON=C(C)c1cccc(Oc2nc(OC)cc(OC)n2)c1C(=O)OC`, with 76 to 78 °C; and `CCc1cccc(CC)c1NC(=O)NCC1(c2ccccc2)CC1`, with 166 to 168 °C.
Next, `CC(C)(C)OC(=O)NCc1cc(-c2cccnc2)n[nH]1`: 185 to 187 °C; `Nc1ccc2ccc(-c3cccc(Br)c3)nc2n1`: 165 to 166 °C; `CC(CC(=O)O)C(=O)c1ccc(-n2ccnc2)cc1` (stereo not drawn): 181 to 182 °C.
As for `Cn1nc2ccc(NCCCN3CCC(OC(c4ccccc4)c4ccccc4)CC3)nn2c1=O`, the melting point was 171 to 172 °C.
Next, `CC(C)(C)CC(=O)c1c(-c2ccc3c(Br)c(OCC(=O)O)ccc3c2)sc2ccccc12`: 206 to 207 °C; `O=[N+]([O-])c1ccc(OC2(c3ccccc3)CCN(Cc3ccccc3)CC2)cc1`: 135 to 137 °C.
For the molecule `COc1ccc(C2(Cn3ccn(Cc4ccccc4)c3=O)CC2)cc1OC`, the melting point came to 110 °C.
Next, `N#Cc1cccc(C=C2c3ccccc3CCc3ccccc32)c1`: 116 °C; `COc1cc[nH]c1C=C1C(=O)Nc2cccc(C#CC(O)c3sccc3OC)c21` (racemic): 213 to 216 °C; `Cn1nc(-c2ccccc2)c2c(=O)[nH]c(N)nc21`: above 300 °C.
Next, `CSc1ncccc1C1C(C(=O)OC(C)C)=C(C)NC(=S)N1C(=O)OC(C)C` (stereo not drawn): 119 to 121 °C.
Then `Cc1nn(CC(F)CO)c(-c2ccc(F)cc2)c1-c1ccc2c(c1)NC(=O)CO2` (stereo not drawn), with 193 to 196 °C; and `CN(C(=O)c1ccccc1NC(=O)N[C@@H](Cc1ccc(NC(=O)c2c(Cl)cccc2Cl)cc1)C(=O)O)c1ccccc1`, with 178 °C; and `O=C(O)c1ccc(-c2ccoc2)s1`, with 147 °C.
Regarding `O=C(c1cc2cc3[nH]c(=O)oc3cc2[nH]1)N1CCC(OCc2ccccc2)CC1`, the melting point lay within 258 to 261 °C.
In the case of `O=C(C[C@@H](CCCC1CCCCC1)c1nc(CNC2CCOCC2)no1)NO`, the melting point is 109 to 110 °C.
Next, `O=C(NC(c1ccccc1)c1ccccc1)[C@H]1Cc2c([nH]c3ccccc23)CN1`: 191 to 196 °C; `O=C(Nc1ccccc1)NN1CCN(CCc2c[nH]c3ccccc23)CC1`: 168 to 171 °C; `O=C(CC1CCCCCC1=O)c1ccccc1` (stereo not drawn): 42 to 44 °C.
Next, `COc1ccc2ccc(N3C(=O)c4ccccc4C3CC(CCC(C)C)=NO)nc2n1` (stereo not drawn): 200 °C; `COc1cc(Nc2nccc(-c3cccc(NCc4cccnc4)c3)n2)cc(OC)c1OC`: 78 to 80 °C.
Molecule `O=S1(=O)N=C(NOCc2ccccc2)Nc2ccc(Cl)cc21` displayed a melting point above 220 °C.
In turn, `Cc1ccc(N(Cc2ccc(N(C)C)cc2)C(=O)Nc2c(C(C)C)cccc2C(C)C)c(C)c1` returned a melting point of 100 °C.
As for `c1ccc(OC(Oc2cccc3ccccc23)Oc2cccc3ccccc23)cc1`, the melting point lay in the range of 88.5 to 90 °C.
Then `COc1nc2c(cc1NC(=S)N1CCN(c3cc(C)cc(C)c3)CC1)CCCC2`, with 200 to 201 °C; and `CCC(O)(CC)c1cc(C)c(-c2cccc(OCc3ccc(CO)c(CO)c3)c2C)c(C)c1`, with 105 to 107 °C; and `CCOc1cc2nc(NC)nc(-c3cccc(-c4cccnc4SC)c3)c2cc1OCC`, with 105 to 107 °C.
Next, `COCCOc1cnn(-c2nc3ccccc3c(=O)[nH]2)c1`: 119 to 124 °C; `O=C(CCCC(=O)N1C(=O)OC[C@@H]1c1ccccc1)c1ccc(F)cc1`: 91 °C; `CC1(O)CCC(=O)N(O)C1` (stereo not drawn): 98 to 100 °C.
Next, `O=c1[nH][nH]c(=O)c2c(O)c3ccccc3nc12`: above 400 °C; `CS(=O)(=O)N1CCN(S(=O)(=O)c2ccc(-c3cccs3)cc2)[C@@H](C(=O)NOC2CCCCO2)C1` (stereo partly drawn): 194 to 195 °C; `CCOc1ccccc1C(=O)SSc1ccc([N+](=O)[O-])cc1C(Cl)(Cl)Cl`: 79 to 80 °C.
With `COCC1CCN(c2ccc(C#N)c3ccccc23)CC1`, the melting point was 96 to 97 °C.
Then `O=S(=O)(c1ccc(Nc2nccc(Nc3ccc(F)cc3)n2)cc1)N(CCNCC(F)(F)F)C1CCN(Cc2ccccc2)CC1`, with 137 to 138 °C.
Next, `Cc1nnc2c(-c3cccc(C(F)(F)F)c3)cncn12`: 157 to 159 °C; `Nc1nc(-c2cc(Cl)ccc2Cl)nc(N2CCN(c3ccccc3)CC2)n1`: 203 to 206 °C.
Then `Cc1cccc(Oc2nc(-c3c[nH]nc3C)cs2)n1`, with 138 to 139 °C.

The record behind these values is a melting point compilation (Tetko et al.; mined from patent text by program, amines drawn as free bases though some values may be those of a salt).
